This is an account of results in ChEMBL document CHEMBL1147312, “1-Aryl Tetralin Lignans from Larrea tridentata” (J Nat Prod, 1989).

In this experiment the test system is Rattus norvegicus. Put plainly: Anti-implantation activity in po dosed rat. Format: functional, organism-based.

The source made the active and inactive calls. The rule behind the calls is not given here.

As to `C[C@H]1[C@H](c2ccc(O)cc2)c2cc(O)c(O)cc2C[C@H]1C`, the outcome was Active.

For the compound `C[C@H]1[C@H](c2ccc(O)c(O)c2)c2cc(O)c(O)cc2C[C@H]1C`, the result was inactive.
